For this experiment, the system named is Mtb H37Rv. The class given is cell-based, Mycobacterium tuberculosis H37Rv.

Read-outs that look alike come from different tables or passages of the source.

As to `CCCCCCCCn1cc(CN2CCC3(CC2)OCCCO3)c2ccc(OC)cc21` [Compound 12], the “spontaneous resistance mutation frequency” value is recorded as 10^−8 /CFU. On to `CCCCCCCCn1cc(CN2CCCCCC2)c2c(F)cccc21` [Compound 71, 3-(azepan-1-ylmethyl)-4-fluoro-1-octyl-1H indole], for which, for the setting “Mtb H37Rv, 12 at 4× and 8× MIC90”, the “spontaneous resistance mutation frequency” value is < 10^−9 /CFU.

The record behind these values is publication PMC6043372 (Journal of medicinal chemistry, 2018).
